ChEMBL document CHEMBL5154808, “Novel β-Hairpin Antimicrobial Peptides Containing the β-Turn Sequence of -RRRF- Having High Cell Selectivity and Low Incidence of Drug Resistance” (J Med Chem, 2022)
Converted amounts (≈) assume the structure as drawn. The source made the active and inactive calls. The rule behind the calls is not given here. Where a SMILES comes first, the peptide text is derived from it.

Key:
[1] = test system: Staphylococcus aureus; test: Antimicrobial activity against Staphylococcus aureus ATCC 25923 assessed as reduction of bacterial growth incubated for 18 hrs by CLSI protocol based broth microdilution method; format: functional
[2] = test system: Bacillus subtilis; test: Antimicrobial activity against Bacillus subtilis ATCC 23857 assessed as reduction of bacterial growth incubated for 18 hrs by CLSI protocol based broth microdilution method; format: functional
[3] = test system: Staphylococcus epidermidis; test: Antimicrobial activity against Staphylococcus epidermidis ATCC 12228 assessed as reduction of bacterial growth incubated for 18 hrs by CLSI protocol based broth microdilution method; format: functional
[4] = test system: Enterococcus faecalis; test: Antimicrobial activity against Enterococcus faecalis ATCC 29212 assessed as reduction of bacterial growth incubated for 18 hrs by CLSI protocol based broth microdilution method; format: functional
[5] = test system: Klebsiella pneumoniae; test: Antimicrobial activity against Klebsiella pneumoniae ATCC 700603 assessed as reduction of bacterial growth incubated for 18 hrs by CLSI protocol based broth microdilution method; format: functional
[6] = test system: Escherichia coli; test: Antimicrobial activity against Escherichia coli ATCC 25922 assessed as reduction of bacterial growth incubated for 18 hrs by CLSI protocol based broth microdilution method; format: functional
[7] = test system: Pseudomonas aeruginosa; test: Antimicrobial activity against Pseudomonas aeruginosa ATCC 27853 assessed as reduction of bacterial growth incubated for 18 hrs by CLSI protocol based broth microdilution method; format: functional
[8] = test system: Erythrocyte; test: Hemolytic activity in mouse red blood cells assessed as release of hemoglobin incubated for 1 hr by microplate reader method; format: toxicity, cell-based
[9] = Cytotoxicity against human HK-2 cells assessed as reduction in cell viability incubated for 1 hr by resazurin based microplate reader method; format: toxicity
[10] = test system: Staphylococcus aureus; test: Induction of drug resistance in Staphylococcus aureus ATCC 25923 assessed as fold increase in MIC after 5 passages by CLSI protocol based broth microdilution method; format: functional; conditions: time 18.0 hrs
[11] = test system: Escherichia coli; test: Induction of drug resistance in Escherichia coli ATCC 25922 assessed as increase in MIC measured after 20 passages by CLSI protocol based broth microdilution method; format: functional; conditions: time 18.0 hrs
[12] = test system: Staphylococcus aureus; test: Antimicrobial activity against kanamycin-resistant Staphylococcus aureus ATCC 25923; format: functional
[13] = test system: Escherichia coli; test: Antimicrobial activity against kanamycin-resistant Escherichia coli ATCC 25922; format: functional
[14] = test system: Staphylococcus aureus; test: Induction of drug resistance in Staphylococcus aureus ATCC 25923 assessed as increase in MIC after 10 passages by CLSI protocol based broth microdilution method; format: functional

Row | MIC [1] | MIC [2] | MIC [3] | MIC [4] | MIC [5] | MIC [6] | MIC [7] | Compound | HC10 [8] | CC50 at 1 h [9] | fold change (FC) [10] | Activity [11] | MIC [12] | MIC [13] | Activity [14]
1 | 8 µM (≈ 15.3 µg/mL) | 4 µM (≈ 7.67 µg/mL) | 4 µM (≈ 7.67 µg/mL) | 16 µM (≈ 30.7 µg/mL) | 8 µM (≈ 15.3 µg/mL) | 8 µM (≈ 15.3 µg/mL) | 4 µM (≈ 7.67 µg/mL) | CC[C@H](C)[C@H](N)C(=O)N[C@@H](CCCNC(=N)N)C(=O)N[C@H](C(=O)N[C@@H](CCCNC(=N)N)C(=O)N[C@@H](CS)C(=O)N[C@@H](CCCNC(=N)N)C(=O)N[C@@H](CCCNC(=N)N)C(=O)N[C@@H](CCCNC(=N)N)C(=O)N[C@@H](Cc1ccccc1)C(=O)N[C@@H](CS)C(=O)N[C@@H](CCCNC(=N)N)C(=O)N[C@H](C(=O)N[C@@H](CCCNC(=N)N)C(=O)N[C@H](C(N)=O)[C@@H](C)CC)[C@@H](C)CC)[C@@H](C)CC (H-IRIRCRRRFCRIRI-NH2) | > 256 µM | 37.1 µM | – | – | – | – | –
2 | 8 µM (≈ 17.3 µg/mL) | 2 µM (≈ 4.32 µg/mL) | 4 µM (≈ 8.64 µg/mL) | 8 µM (≈ 17.3 µg/mL) | 8 µM (≈ 17.3 µg/mL) | 8 µM (≈ 17.3 µg/mL) | 4 µM (≈ 8.64 µg/mL) | CC(C)C[C@H](NC(=O)[C@H](CCCNC(=N)N)NC(=O)CNC(=O)CNC(=O)[C@@H](N)CCCNC(=N)N)C(=O)N[C@@H](CS)C(=O)N[C@@H](Cc1ccc(O)cc1)C(=O)N[C@@H](CS)C(=O)N[C@@H](CCCNC(=N)N)C(=O)N[C@@H](CCCNC(=N)N)C(=O)N[C@@H](CCCNC(=N)N)C(=O)N[C@@H](Cc1ccccc1)C(=O)N[C@@H](CS)C(=O)N[C@H](C(=O)N[C@@H](CS)C(=O)N[C@H](C(=O)NCC(=O)N[C@@H](CCCNC(=N)N)C(N)=O)C(C)C)C(C)C (H-RGGRLCYCRRRFCVCVGR-NH2) | 20 µM | 14.2 µM | – | – | – | – | –
3 | 128 µM | 64 µM | 128 µM | > 128 µM | > 128 µM | > 128 µM | > 128 µM | H-ARARRRRFRARA-NH2 | > 256 µM | > 128 µM | – | – | – | – | –
4 | 8 µM | 4 µM | 2 µM | 8 µM | 8 µM | 8 µM | 8 µM | H-FRFRFRRRRFRFRFRF-NH2 | > 256 µM | 10.3 µM | – | – | – | – | –
5 | 4 µM | 2 µM | 4 µM | 16 µM | 8 µM | 8 µM | 8 µM | H-FRFRRRRFRFRF-NH2 | 237 µM | 42 µM | – | – | – | – | –
6 | 32 µM | 4 µM | 8 µM | 64 µM | 64 µM | 64 µM | 16 µM | H-IKIKRRRFKIKI-NH2 | > 256 µM | > 128 µM | – | – | – | – | –
7 | 8 µM | 2 µM | 2 µM | 4 µM | 8 µM | 8 µM | 4 µM | H-IRIRIRRRRFRIRIRI-NH2 | 56 µM | 12.3 µM | – | – | – | – | –
8 | 4 µM | 4 µM | 4 µM | 16 µM | 16 µM | 16 µM | 4 µM | H-IRIRRRRFRIRI-NH2 | > 256 µM | 128 µM | – | – | – | – | –
9 | 32 µM | 4 µM | 8 µM | 128 µM | 128 µM | 32 µM | 64 µM | H-LKLKRRRFKLKL-NH2 | > 256 µM | > 128 µM | – | – | – | – | –
10 | 8 µM | 4 µM | 4 µM | 32 µM | 64 µM | 8 µM | 16 µM | H-RIRIRRRFIRIR-NH2 | > 256 µM | > 128 µM | – | – | – | – | –
11 | 16 µM | 4 µM | 8 µM | > 128 µM | 64 µM | 32 µM | 64 µM | H-VRVRRRRFRVRV-NH2 | > 256 µM | > 128 µM | – | – | – | – | –
12 | 4 µM | 2 µM | 4 µM | 16 µM | 8 µM | 4 µM | 4 µM | H-WKWKRRRFKWKW-NH2 | > 256 µM | 120 µM | – | – | – | – | –
13 | 8 µM | 4 µM | 4 µM | 8 µM | 8 µM | 8 µM | 4 µM | H-WKWKWKRRRFKWKWKW-NH2 | > 256 µM | 10.4 µM | – | – | – | – | –
14 | 8 µM | 2 µM | 4 µM | 8 µM | 8 µM | 8 µM | 8 µM | H-WRWRRRRFRWRW-NH2 | > 256 µM | 8.7 µM | – | – | – | – | –

Row | Compound | MIC [1] | MIC [2] | MIC [3] | MIC [4] | MIC [5] | MIC [6] | MIC [7] | HC10 [8] | CC50 at 1 h [9] | fold change (FC) [10] | Activity [11] | MIC [12] | MIC [13] | Activity [14]
15 | NC[C@H]1O[C@H](O[C@H]2[C@H](O)[C@@H](O[C@H]3O[C@H](CO)[C@@H](O)[C@H](N)[C@H]3O)[C@H](N)C[C@@H]2N)[C@H](O)[C@@H](O)[C@@H]1O [KANAMYCIN] | < 1 µM | < 1 µM | > 128 µM | 16 µM (≈ 7.75 µg/mL) | 64 µM (≈ 31 µg/mL) | 4 µM (≈ 1.94 µg/mL) | > 128 µM | – | – | 64 | Active | 1020 µM (≈ 496 µg/mL) | 1020 µM (≈ 496 µg/mL) | –
16 | CC[C@H](C)[C@H](NC(=O)CN)C(=O)NCC(=O)N[C@@H](C)C(=O)N[C@H](C(=O)N[C@@H](CC(C)C)C(=O)N[C@@H](CCCCN)C(=O)N[C@H](C(=O)N[C@@H](CC(C)C)C(=O)N[C@H](C(=O)N[C@H](C(=O)NCC(=O)N[C@@H](CC(C)C)C(=O)N1CCC[C@H]1C(=O)N[C@@H](C)C(=O)N[C@@H](CC(C)C)C(=O)N[C@H](C(=O)N[C@@H](CO)C(=O)N[C@@H](Cc1c[nH]c2ccccc12)C(=O)N[C@H](C(=O)N[C@@H](CCCCN)C(=O)N[C@@H](CCCNC(=N)N)C(=O)N[C@@H](CCCCN)C(=O)N[C@@H](CCCNC(=N)N)C(=O)N[C@@H](CCC(N)=O)C(=O)N[C@@H](CCC(N)=O)C(N)=O)[C@@H](C)CC)[C@@H](C)CC)[C@@H](C)O)[C@@H](C)O)C(C)C)C(C)C [MELITTIN] | – | – | – | 2 µM (≈ 5.69 µg/mL) | 16 µM (≈ 45.5 µg/mL) | – | – | – | – | – | – | – | – | –
17 | C[C@@H](O)[C@H]1C(=O)N2C(C(=O)O)=C(S[C@@H]3CN[C@H](C(=O)N(C)C)C3)[C@H](C)[C@H]12 [MEROPENEM] | < 1 µM | < 1 µM | < 1 µM | 16 µM (≈ 6.14 µg/mL) | < 1 µM | < 1 µM | 2 µM (≈ 0.767 µg/mL) | – | – | – | Active | – | – | Active
18 | CO[C@H]1/C=C/O[C@@]2(C)Oc3c(C)c(O)c4c(O)c(c(/C=N/N5CCN(C)CC5)c(O)c4c3C2=O)NC(=O)/C(C)=C\C=C\[C@H](C)[C@H](O)[C@@H](C)[C@@H](O)[C@@H](C)[C@H](OC(C)=O)[C@@H]1C [RIFAMPIN] | < 1 µM | < 1 µM | < 1 µM | < 1 µM | 32 µM (≈ 26.3 µg/mL) | 4 µM (≈ 3.29 µg/mL) | 32 µM (≈ 26.3 µg/mL) | – | – | 64 | Active | – | – | –
